Test results reported in patent EP1227083A1, “3-AMINOPIPERIDINE DERIVATIVES AS INTEGRIN $g(a)v$g(b)3 ANTAGONISTS” (Meiji Seika Kaisha, Ltd., priority 1999, dated 2001).
“And” between values parts separate entries of the source, which are not always exact repeats. Equal values may be shown once. Read-outs that look alike come from different tables or passages of the source.

Tests used:
GP IIb/IIIa = GP IIb/IIIa (Homo sapiens, UniProt P05106+P08514); experiment: GP IIb/IIIa antagonistic activity (method of Pharmacological Test 2 in WO 94/21599); type: binding; details: read-out: IC50 (GP IIb/IIIa antagonistic activity)
Sequence of GP IIb/IIIa (P08514 32-887 limits assumed): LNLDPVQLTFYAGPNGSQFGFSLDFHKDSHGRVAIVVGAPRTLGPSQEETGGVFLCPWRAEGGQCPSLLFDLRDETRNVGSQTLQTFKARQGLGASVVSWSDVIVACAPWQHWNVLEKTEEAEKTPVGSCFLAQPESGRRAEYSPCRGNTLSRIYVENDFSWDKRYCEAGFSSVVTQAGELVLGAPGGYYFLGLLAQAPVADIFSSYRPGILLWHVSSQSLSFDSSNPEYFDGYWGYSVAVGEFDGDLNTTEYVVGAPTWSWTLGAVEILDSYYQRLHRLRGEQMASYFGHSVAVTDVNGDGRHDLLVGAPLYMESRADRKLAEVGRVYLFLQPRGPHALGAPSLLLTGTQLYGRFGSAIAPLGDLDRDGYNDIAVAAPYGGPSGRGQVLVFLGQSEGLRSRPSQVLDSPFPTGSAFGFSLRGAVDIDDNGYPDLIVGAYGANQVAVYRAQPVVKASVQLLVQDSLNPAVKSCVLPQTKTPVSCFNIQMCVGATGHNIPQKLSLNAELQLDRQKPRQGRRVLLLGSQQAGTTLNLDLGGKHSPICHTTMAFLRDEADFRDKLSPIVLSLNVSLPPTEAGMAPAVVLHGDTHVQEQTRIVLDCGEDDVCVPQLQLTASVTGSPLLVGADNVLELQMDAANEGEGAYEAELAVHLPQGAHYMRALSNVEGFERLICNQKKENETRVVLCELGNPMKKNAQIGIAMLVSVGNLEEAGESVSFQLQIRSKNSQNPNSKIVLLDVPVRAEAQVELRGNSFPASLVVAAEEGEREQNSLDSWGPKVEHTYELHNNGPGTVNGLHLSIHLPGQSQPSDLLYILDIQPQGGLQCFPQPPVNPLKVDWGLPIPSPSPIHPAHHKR
Sequence of GP IIb/IIIa (P08514 891-1039 partner limits assumed): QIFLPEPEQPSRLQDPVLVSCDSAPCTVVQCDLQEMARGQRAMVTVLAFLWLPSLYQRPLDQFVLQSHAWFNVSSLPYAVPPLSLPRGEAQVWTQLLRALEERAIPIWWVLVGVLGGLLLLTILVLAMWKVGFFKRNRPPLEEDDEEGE
Sequence of GP IIb/IIIa (P05106 27-788): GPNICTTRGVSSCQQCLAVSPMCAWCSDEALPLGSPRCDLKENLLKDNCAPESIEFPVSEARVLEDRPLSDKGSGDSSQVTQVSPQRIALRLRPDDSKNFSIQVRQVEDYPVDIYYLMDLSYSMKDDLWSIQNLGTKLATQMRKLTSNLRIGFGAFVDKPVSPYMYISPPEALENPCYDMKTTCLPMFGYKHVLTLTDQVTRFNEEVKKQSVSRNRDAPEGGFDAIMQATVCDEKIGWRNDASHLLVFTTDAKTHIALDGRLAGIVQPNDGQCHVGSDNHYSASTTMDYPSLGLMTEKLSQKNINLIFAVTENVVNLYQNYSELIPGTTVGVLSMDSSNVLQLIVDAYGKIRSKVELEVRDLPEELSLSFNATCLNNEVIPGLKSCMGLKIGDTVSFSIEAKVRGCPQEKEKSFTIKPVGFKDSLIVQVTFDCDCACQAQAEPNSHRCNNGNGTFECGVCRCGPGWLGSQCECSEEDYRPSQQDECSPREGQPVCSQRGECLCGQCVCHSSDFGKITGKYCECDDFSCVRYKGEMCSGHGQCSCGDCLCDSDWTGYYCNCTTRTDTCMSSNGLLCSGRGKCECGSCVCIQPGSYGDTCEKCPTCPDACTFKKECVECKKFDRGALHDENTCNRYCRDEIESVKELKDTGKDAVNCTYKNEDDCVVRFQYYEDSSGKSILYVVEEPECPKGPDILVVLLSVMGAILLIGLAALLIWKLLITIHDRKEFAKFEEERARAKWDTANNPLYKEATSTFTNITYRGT
Method: GP IIb/IIIa antagonistic activity was measured for compounds according to the present invention. The measurement of the GP IIb/IIIa antagonistic activity was carried out according to the method described in Pharmacological Test 2 in WO 94/21599.

[1] = target: T1, Integrin αvβ3 (vitronectin receptor) (Homo sapiens, UniProt P05106+P06756); experiment: αvβ3 Binding assay (vitronectin-vitronectin receptor binding assay)
T1 construct: a vitronectin receptor (protein content: 118 µg/ml) purified from the human placenta; from tissue; host or cells: human placenta
T1 sequence (P06756 31-889 limits assumed): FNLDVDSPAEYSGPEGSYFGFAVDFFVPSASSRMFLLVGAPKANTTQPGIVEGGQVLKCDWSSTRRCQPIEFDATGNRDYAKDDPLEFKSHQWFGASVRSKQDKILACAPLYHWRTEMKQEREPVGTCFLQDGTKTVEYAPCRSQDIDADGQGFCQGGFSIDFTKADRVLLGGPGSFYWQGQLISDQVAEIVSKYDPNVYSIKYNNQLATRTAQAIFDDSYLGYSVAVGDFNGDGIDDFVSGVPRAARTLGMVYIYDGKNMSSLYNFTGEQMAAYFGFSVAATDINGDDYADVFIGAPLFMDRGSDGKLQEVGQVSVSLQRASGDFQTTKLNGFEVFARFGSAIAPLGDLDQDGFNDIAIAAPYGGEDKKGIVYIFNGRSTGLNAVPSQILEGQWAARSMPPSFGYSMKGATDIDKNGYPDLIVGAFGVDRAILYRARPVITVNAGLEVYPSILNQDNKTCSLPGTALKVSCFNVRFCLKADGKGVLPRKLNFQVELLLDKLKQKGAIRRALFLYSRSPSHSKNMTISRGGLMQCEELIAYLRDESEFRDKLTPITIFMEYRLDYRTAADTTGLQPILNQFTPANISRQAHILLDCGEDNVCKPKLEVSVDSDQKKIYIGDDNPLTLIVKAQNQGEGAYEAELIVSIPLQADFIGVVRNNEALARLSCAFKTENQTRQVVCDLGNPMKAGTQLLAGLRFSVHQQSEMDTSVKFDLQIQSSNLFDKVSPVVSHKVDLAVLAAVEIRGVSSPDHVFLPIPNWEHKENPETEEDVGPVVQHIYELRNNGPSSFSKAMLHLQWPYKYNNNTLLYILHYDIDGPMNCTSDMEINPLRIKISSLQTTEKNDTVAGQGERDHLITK
T1 sequence (P06756 891-1048 partner limits assumed): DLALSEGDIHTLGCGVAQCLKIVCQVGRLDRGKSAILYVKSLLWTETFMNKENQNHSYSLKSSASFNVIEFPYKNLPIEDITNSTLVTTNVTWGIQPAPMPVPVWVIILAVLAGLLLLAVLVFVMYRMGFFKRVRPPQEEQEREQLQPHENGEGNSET
T1 sequence (P05106 27-788): as the sequence (P05106 27-788) above
Method: Pharmacological Test Example 1: αvβ3 Binding assay
Integrin αvβ3 antagonistic activity of compounds according to the present invention was measured in a vitronectin-vitronectin receptor binding assay system in accordance with the method of Kouns et al. (W. C. Kouns, D. Kirchhofer, P. Hadvary, A. Edenhofer, T. Weller, G. Pfenninger, H. R. Baumgartner, L. K. Jennings and B. Steiner, Blood, 80, 2539-2547 (1992)).
Specifically, a vitronectin receptor (protein content: 118 µg/ml) purified from the human placenta in accordance with the method of Pytela et al. (R. Pytela, M. D. Pierschbacher, S. Argraves, S. Suzuki, and E. Ruoslahti, Method in Enzymology, 144, 475-489 (1987)) was diluted 50 times with TBS (20 mM Tris-HCl, 150 mM NaCl, 1 mM CaCl2, 1 mM MgCl2, pH 7.4), and distributed and coated on wells (50 µl/well) of a plate (Maxisorp, Nunc, 96 well Immuno Plate). The plate was then allowed to stand at 4°C for one day, washed twice with TBS (200 µl/well), and then subjected to blocking with TBS (150 µl/well) containing 1% bovine serum albumin (SIGMA) at 4°C overnight. After washing twice with TBS (200 µl/well), 50 µl of vitronectin (CALBIOCHEM) adjusted to 0.2 µg/ml by the addition of TBS (TBS-Tween) containing 0.01% Tween-20 was mixed with 50 µl of each test compound adjusted to each concentration in wells, and a reaction was allowed to proceed at room temperature for 4 hr. After the completion of the reaction, the wells were washed three times with TBS-Tween. A solution prepared by diluting anti-vitronectin rabbit antiserum (CHEMICON) 500 times with TBS-Tween was added as a primary antibody in an amount of 50 µl/well, and a reaction was allowed to proceed at room temperature for 1.5 hr. After washing three times with 200 µl/well of TBS-Tween, a peroxidase (POD)-labeled anti-rabbit IgG antibody solution (CAPPEL) diluted 500 times with TBS-Tween was added as a secondary antibody in an amount of 50 µl/well, and a reaction was allowed to proceed at room temperature for 1.5 hr. After washing three times with TBS-Tween (200 µl/well), ABTS (2,2'-azino-bis(3-ethylbenzthiazoline-6-sulfonic acid), SIGMA) was adjusted to 1 mg/ml by the addition of a ten-fold diluted POD-buffer (ZYMED), and was added in an amount of 50 µl/well, and a reaction was allowed to proceed for 5 to 10 min. A 0.1 M citric acid buffer (pH 4.3) containing 0.05% NaN3 was added in an amount of 50 µl/well to stop the reaction, followed by the measurement of the absorbance at 415 nm with a microplate reader (MTP 32, Corona Electric) (reference: 675 nm). The total binding was defined as the absorbance after a reaction using 50 µl of TBS-Tween instead of the test compound, and the non-specific binding (100% inhibition) was defined as the absorbance after a reaction using 50 µl of TBS-Tween containing 2 x 10^-3 M RGDS. The inhibition was calculated by the following equation: Inhibition (%) = 100-((absorbance in the presence of test compound - non-specific binding))/((total binding - non-specific binding))× 100 [formula]
IC50 was determined from a primary regression line of the logarithm of each concentration of the test compound and the logarithm of (100 - inhibition)/inhibition.

[2] = test system: human platelet aggregation; experiment: Human platelet aggregation inhibitory activity (method of Pharmacological Test 1 in WO 94/21599); type: cell-based
Method: Human platelet aggregation inhibitory activity was measured for compounds according to the present invention. The measurement of the human platelet aggregation inhibitory activity was carried out according to the method described in Pharmacological Test 1 in WO 94/21599.

Oral absorption in rats = type: in vivo; details: data not shown
[3] = test system: human vascular smooth muscle cells; experiment: Inhibitory activity against adhesion of human vascular smooth muscle cells to vitronectin; type: cell-based; details: immobilized human vitronectin
Method: Pharmacological Test Example 3: Inhibitory activity against adhesion of human vascular smooth muscle cells to vitronectin
The adhesion of human vascular smooth muscle cells to immobilized human vitronectin was measured in accordance with the method of Liaw et al. (Liaw L, Almeida M, Hart CE, Schwartz SM, and Giachelli CM, Circulation Research, 74 (2), 214-224 (1994)).
A Dulbecco's phosphate buffer (Dulbecco's PBS(-), Nissui Pharmaceutical Co., Ltd.) solution of human plasma-derived vitronectin (CALBIOCHEM) adjusted to a concentration of 4 µg/ml was first added to wells (50 µl/well) of a microplate (Maxisorp, Nunc), and a reaction for immobilization was allowed to proceed at 4°C overnight. […]
Next, 50 µl of a Dulbecco's modified Eagle's basal medium containing 0.1% of bovine serum albumin with a medicament added thereto was added to the wells of the human vitronectin-coated assay microplate, followed by pre-cultivation under 5% carbon dioxide at 37°C for 10 min. […] The absorbance of the microplate thus obtained was measured at 595 nm. […] The inhibition was calculated by the following equation. IC50 was determined from a primary regression line of the logarithm of each concentration of the test compound and the logarithm of (100 - inhibition)/inhibition. […]

[4] = read-out: IC50 (integrin αvβ3 antagonistic activity); vitronectin binding to vitronectin receptor purified from the human placenta
[5] = vitronectin binding to vitronectin receptor purified from the human placenta; read-out: IC50 (integrin αvβ3 antagonistic activity)

SMILES	IC50 (GP IIb/IIIa)	further results
O=C(NC[C@H](NS(=O)(=O)c1ccccc1)C(=O)O)c1ccc(N2CCCC(Nc3ncccn3)C2)cc1 (stereo partly drawn) [Example 2, (2S)-Benzenesulfonylamino-3-[4-{3-(pyrimidin-2-ylamino)piperidin-1-yl}benzoylamino]propionic acid]	≤ 1.1 nM	
O=C(NC[C@H](NS(=O)(=O)c1ccccc1)C(=O)O)c1ccc(N2CCCC(NC3=NCCCN3)C2)cc1 (stereo partly drawn) [Example 3, (2S)-Benzenesulfonylamino-3-[4-{3-(1,4,5,6-tetrahydropyrimidin-2-ylamino)piperidin-1-yl}benzoylamino]propionic acid]	≤ 1.1 nM	IC50 [1, 4]: ≤ 1 nM
O=C(NC[C@H](NS(=O)(=O)c1ccccc1)C(=O)O)c1ccc(N2CCC[C@H](Nc3ccccn3)C2)cc1 [Example 27, (2S) -Benzenesulfonylamino-3-[4-{(3S)-(pyridin-2-ylamino)piperidin-1-yl}-benzoylamino]propionic acid]	≤ 1.1 nM	IC50 [1, 4]: ≤ 1 nM
O=C(NC[C@H](NS(=O)(=O)c1ccccc1)C(=O)O)c1ccc(N2CCC[C@H](NC3=NCCCN3)C2)c(F)c1 [Example 6, (2S)-Benzenesulfonylamino-3-[3-fluoro-4-{(3S)-(1,4,5,6-tetrahydropyrimidin-2-ylamino)piperidin-1-yl}benzoylamino]propionic acid]	≤ 1.1 nM and 1.1 nM	
O=C(NC[C@H](NS(=O)(=O)c1ccccc1)C(=O)O)c1ccc(N2CCC[C@H](N=C3NCCCN3)C2)cc1 [Example 25, (2S)-Benzenesulfonylamino-3-[4-{(3S)-(1,4,5,6-tetrahydropyrimidin-2-ylamino)piperidin-1-yl}benzoylamino]propionic acid]	≤ 1.1 nM	IC50 [1, 5]: ≤ 1 nM; IC50 [2]: 56 nM
O=C(NC[C@H](NS(=O)(=O)c1ccccc1)C(=O)O)c1ccc(N2CCC[C@H](Nc3ncccn3)C2)c(F)c1 [Example 5, (2S)-Benzenesulfonylamino-3-[3-fluoro-4-{(3S)-(pyrimidin-2-ylamino)piperidin-1-yl}benzoylamino]-propionic acid]		oral absorption (Oral absorption in rats): had oral absorption
O=C(NC[C@H](NS(=O)(=O)c1cccs1)C(=O)O)c1ccc(N2CCC[C@H](N=C3NCCCN3)C2)cc1 [Example 44, 3-[4-{(3S)-(1,4,5,6-Tetrahydropyrimidin-2-ylamino)piperidin-1-yl}benzoylamino]-(2S)-{(thiophene-2-sulfonyl)amino}propionic acid]	≤ 1.1 nM	IC50 [1, 5]: ≤ 1 nM
O=C(NC[C@H](NS(=O)(=O)c1ccccc1)C(=O)O)c1ccc(N2CCC[C@H](N=C3NCCCN3)C2)cc1F [Example 30, (2S)-Benzenesulfonylamino-3-[2-fluoro-4-{(3S)-(1,4,5,6-tetrahydropyrimidin-2-ylamino)piperidin-1-yl}benzoylamino]propionic acid]	≤ 1.1 nM	IC50 [1, 5]: ≤ 1 nM; IC50 [3]: 13 nM
O=C(NC[C@H](NS(=O)(=O)c1ccccc1)C(=O)O)c1ccc(N2CCC[C@H](NC3=NCCCN3)C2)c(Cl)c1 [Example 22, (2S)-Benzenesulfonylamino-3-[3-chloro-4-{(3S)-(1,4,5,6-tetrahydropyrimidin-2-ylamino)piperidin-1-yl}benzoylamino]propionic acid]	≤ 1.1 nM	
O=C(NC[C@H](NS(=O)(=O)c1ccccc1)C(=O)O)c1ccc(N2CCC[C@H](NC3=NCCCN3)C2)c(F)c1F [Example 19, (2S)-Benzenesulfonylamino-3-[2,3-difluoro-4-{(3S)-(1,4,5,6-tetrahydropyrimidin-2-ylamino)piperidin-1-yl}benzoylamino]propionic acid]	≤ 1.1 nM	IC50 [1, 4]: ≤ 1 nM
O=C(NC[C@H](NS(=O)(=O)c1ccccc1)C(=O)O)c1ccc(N2CCC[C@@H](NC3=NCCCN3)C2)c(F)c1 [Example 9, (2S)-Benzenesulfonylamino-3-[3-fluoro-4-{(3R)-(1,4,5,6-tetrahydropyrimidin-2-ylamino)piperidin1-yl}benzoylamino]propionic acid]	≤ 1.1 nM	
